Assays:
[1] = test system: isolated E. coli strains; assay: Aggregation assay with EB8018 on the collection of isolated bacterial strains; assay type: cell-based, Escherichia coli
From the text: 110 E. coli strains from La Girona University (Margarita Medina-Martinez Lab-Girona-Spain) and Cornell (Kenneth Simpson Lab—Ithaca—USA) have been made available through MTA. These isolated strains had been previously extracted from the stool or ileal/colonic biopsies of IBD patients or controls and had been characterised for their AIEC phenotype (for Cornell strains see Dogan B. et al., 2014; Baumgart M. et al., 2007, summarized in the Appendix). Those 110 strains have been sent to SMALTIS (Besangon, France) who is in charge of all laboratory work. An additional 3 non E. coli strains have been ordered as well as LF82 and LF82 deltaFimH that serve as respectively positive and negative controls.
(§1) Three days before aggregation assays, bacterial strains were defrosted on TSA (Tryptone Soya Agar) plates. A first overnight culture was performed by inoculation of 3 mL of LB broth with a single colony of bacteria followed by a second overnight culture (1 mL of the first culture+4 mL LB broth).
(§2) Six concentrations of EB8018 (sample SP-0010269-017 produced by China Gateway) were tested in the aggregation assays (1 nM/10 nM/100 nM/1 μM/10 μM and 100 μM), 500× working solutions were prepared in pure DMSO by 10-fold serial dilutions from a 100 mM stock solution (65 mg EB8018+1 mL DMSO; MEB8018:649.68 g/mol). The 500× working solutions (1 μM, 10 μM, 100 μM, 1 mM, 10 mM and 100 mM) were split into aliquots and stored at −20° C., until use.
(§3) On the day of the test, an aliquot of each EB8018 500× working solution (1 μM, 10 μM, 100 μM, 1 mM, 10 mM and 100 mM) was defrosted and diluted twice in LB medium (1:20 for the first dilution and 1:25 for the second dilution) to obtain respectively six 2× working solutions (2 nM, 20 nM, 200 nM, 2 μM, 20 μM and 200 μM). The second overnight bacterial cultures were diluted in LB medium (50-fold dilution). […] Every hour, each well was observed and the starting time of aggregation was recorded. […] For each concentration and each time point, aggregation was evaluated by a technician. […]

[2] = test system: LF82-ΔFimH; assay: Aggregation assay with EB8018 on negative control strain LF82-ΔFimH; assay type: cell-based, Escherichia coli; settings: whatever the concentration tested and whatever the time of incubation
Procedure: as §1, §2, §3

[3] = test system: bacterial morphotypes isolated from biopsies of CD patients; assay: Aggregation to EB8018 of bacterial morphotypes isolated from MOBIDIC ileal biopsies; assay type: cell-based; settings: 106 CD patients with conclusive biopsy results; 10 nM/100 nM/1 μM EB8018
Procedure: Mucosal specimens, isolated from CD patients have been collected from the MOBIDIC study. For each patient, 4 biopsies were collected, 2 or 3 for further investigations and 1 or 2 as back-up sample stored at Cell&Co (Clermont-Ferrand, France). The ileal specimens were introduced immediately into preweighed vials containing 1.8 mL of refrigerated DMEM with 15% glycerol. The vials were weighed to establish the weight of sample. Ideally, the size of the biopsies must be between 5 and 10 mg. After being frozen at −80° C., vials were sent to Cell&Co and stored at −80° C. upon receipt.
On day 1, biopsies were processed to retrieve adherent bacteria (extract A) and invasive bacteria (extract I). […]
Extracts A and I were cultivated in LB broth for 2×24 hours and on day 3, the LB overnight cultures were used for aggregation assays with EB8018 compound. […] Every hour, bacterial growth was measured and a picture of each well was taken using a SPARK10M. After 5 hours, the microplate was shacked and 10 min after, a picture was taken for aggregation assessment (aggregation was evaluated by a technician with comparison with DMSO). […]
When no aggregation was observed on extracts or in case of inconclusive evaluation (for example with observation of aggregation with the DMSO without any compound), a second biopsy was analysed following the same protocol. […]

[4] = test system: LF82; assay: Aggregation assay with EB8018 on positive control strain LF82; assay type: cell-based, Escherichia coli
Procedure: as §1, §2
On the day of the test, an aliquot of each EB8018 500× working solution (1 μM, 10 μM, 100 μM, 1 mM, 10 mM and 100 mM) was defrosted and diluted twice in LB medium (1:20 for the first dilution and 1:25 for the second dilution) to obtain respectively six 2× working solutions (2 nM, 20 nM, 200 nM, 2 μM, 20 μM and 200 μM). The second overnight bacterial cultures were diluted in LB medium (50-fold dilution). Fifty μL of these bacteria dilutions were dispensed into 96-well plates (8 wells/strain). Fifty μL of the EB8018 2× working solutions or fresh LB or LB with 0.2% DMSO were added to the wells. Microplates were incubated for 5 hours at 37° C. under constant shaking (200 rpm). Every hour, each well was observed and the starting time of aggregation was recorded. After 5 hours of incubation, a picture was taken only in wells where an aggregation was observed. For each concentration and each time point, aggregation was evaluated by a technician.
This protocol was applied to the 113 isolated bacterial strains. On each plate, a positive control (LF82) and a negative control (LF82-ΔFimH) were used.

[5] = test system: AIEC; settings: Bouckaert et al., 2005, 2013; cited from earlier work
[6] = test system: cystitis murine model; settings: Wellens et al., 2008; cited from earlier work
[7] = test system: AIEC; settings: CEABAC 10 Crohn's disease model; Sivignon 2015; cited from earlier work

Compound | share of analyzable strains classified on the grey zone (low aggregation) ([1]; 6 concentrations, every hour for 5 hours) [%] | share of analyzable strains that did not aggregate ([1]; all results negative across 6 concentrations and 5 hours) [%] | share of analyzable strains that did aggregate ([1]; at least one + or +/− across 6 concentrations and 5 hours) [%] | aggregation [2] | share of patients with at least one morphotype that aggregated [3] [%] | share of patients with no aggregation [3] [%] | level of aggregation ([4]; LF82, 1 nM EB8018, after 5 h of incubation) | level of aggregation ([4]; LF82, 10 nM EB8018, after 5 h of incubation) | level of aggregation ([4]; LF82, 100 nM EB8018, after 5 h of incubation) | level of aggregation ([4]; LF82, 1 μM EB8018, after 5 h of incubation) | starting time of aggregation ([4]; LF82 positive control, incubation at 37° C.) [h] | in vitro AIEC adhesion inhibition [5] | concentration required for a significant bacterial load reduction [6] | effect with AIEC [7]
CC(=O)N1CCC2(CC1)c1cc(C#C[C@H]3O[C@H](CO)[C@@H](O)[C@H](O)[C@@H]3O)ccc1-c1ccc(C#C[C@H]3O[C@H](CO)[C@@H](O)[C@H](O)[C@@H]3O)cc12 [EB8018, 1-(2,7-bis(((2R,3S,4R,5S,6R)-3,4,5-trihydroxy-6-(hydroxylmethyl)tetrahydro-2H-pyran-2-yl)ethynyl)spiro[fluorene-9,4′-piperidin]-1′-yl)ethan-1-one] | 13 | 44 | 42 | did not aggregate | 65 | 15 | strong aggregation | strong aggregation | strong aggregation | moderate aggregation | 2 |  |  | 
CCCCCCCO[C@H]1O[C@H](CO)[C@@H](O)[C@H](O)[C@@H]1O [Heptylmannose] |  |  |  |  |  |  |  |  |  |  |  | potent | millimolar concentrations are required | no effect

— patent US11898210B2, “Tools for assessing FimH blockers therapeutic efficiency” (ENTEROME, priority 2017, dated 2024)
